Converted amounts (≈) assume the structure as drawn. The source made the active and inactive calls. The calls are words filed in the database; no cut-off is given here. Numbered stars: 1 amine (or outer) side, 2 acyl side, 3 side chain; on linkers, the order of the positions; unused ones are H or OH. Bridge positions count the residues as written; N and C are the ends. Square brackets hold non-standard residues; d marks the D form. Peptide text beside a SMILES is read from it. X1 = CC[C@H](C)[C@@H](N[*:1])[C@@H](O)CC(=O)O[C@H](C(=O)[C@H](C)C(=O)[*:2])C(C)C; NMeY = CN[C@@H](Cc1ccc(O)cc1)C(=O)O; dNMeL = CN[C@H](CC(C)C)C(=O)O; Lac = C[C@H](O)C(=O)O
Assays:
L1210 = test: Cytotoxicity against mouse L1210 cells; format: functional, cell-based
[1] = tested on: Vesicular stomatitis virus; test: Antiviral activity against VSV assessed as reduction in plaque formation at 20 ng; format: functional, organism-based
Human alphaherpesvirus 1 [2] = test: Antiviral activity against HSV1 assessed as reduction in plaque formation at 780 ng; format: functional, organism-based
Human alphaherpesvirus 1 [3] = test: Antiviral activity against HSV1 assessed as reduction in plaque formation at 20 ng; format: functional, organism-based
[4] = tested on: Vesicular stomatitis virus; test: Antiviral activity against VSV assessed as reduction in plaque formation at 100 ng; format: functional, organism-based
[5] = tested on: Vesicular stomatitis virus; test: Antiviral activity against VSV assessed as reduction in plaque formation at 30 ng; format: functional, organism-based
Human alphaherpesvirus 1 [6] = test: Antiviral activity against HSV1 assessed as reduction in plaque formation at 30 ng; format: functional, organism-based
[7] = tested on: Vesicular stomatitis virus; test: Antiviral activity against VSV assessed as reduction in plaque formation at 100 ug; format: functional, organism-based
Human alphaherpesvirus 1 [8] = test: Antiviral activity against HSV1 assessed as reduction in plaque formation at 100 ug; format: functional, organism-based
Human alphaherpesvirus 1 [9] = test: Antiviral activity against HSV1 assessed as reduction in plaque formation at 10 ug; format: functional, organism-based
P388 [10] = test: In vivo antitumor activity against mouse P388 cells at 3.8 ug/kg relative to control; format: functional
B16 = test: In vivo antitumor activity against mouse B16 cells at 10 ug/kg relative to control; format: functional
P388 [11] = test: In vivo antitumor activity against mouse P388 cells at 250 ug/kg relative to control; format: functional
P388 [12] = test: In vivo antitumor activity against mouse P388 cells at 15 ug/kg relative to control; format: functional

CC[C@H](C)[C@@H]1NC(=O)[C@@H](NC(=O)[C@@H](CC(C)C)N(C)C(=O)[C@@H]2CCCN2C(=O)[C@H](C)OC(C)=O)[C@@H](C)OC(=O)[C@H](Cc2ccc(OC)cc2)N(C)C(=O)[C@@H]2CCCN2C(=O)[C@H](CC(C)C)NC(=O)[C@@H](C)C(=O)[C@H](C(C)C)OC(=O)C[C@@H]1OC(C)=O
IC50 (L1210): 1.6 ng/mL (≈ 1.34 nM)

CC(=O)O[C@H]1C[C@]2(C)[C@H]3[C@H](O)C(=O)[C@]4(C)[C@@H](c5ccc(=O)oc5)CC[C@]4(O)[C@@H]3CC[C@]2(O)C[C@H]1OC(C)=O
AC50 [1]: Not Active
Activity (Human alphaherpesvirus 1 [2]): Active
Activity (Human alphaherpesvirus 1 [3]): inactive

CC(=O)O[C@@H]1C[C@@]2(O)CC[C@@H]3[C@H]([C@H](O)C(=O)[C@]4(C)[C@@H](c5ccc(=O)oc5)CC[C@]34O)[C@@]2(C)C[C@@H]1O
Activity [4]: inactive

CC(=O)O[C@H]1C[C@]2(C)[C@H]3[C@H](O)C(=O)[C@]4(C)[C@@H](c5ccc(=O)oc5)CC[C@]4(O)[C@@H]3CC[C@]2(O)C[C@H]1O
Activity [4]: inactive

CC(=O)O[C@H]1C[C@]2(C)[C@H]3[C@H](O)C(=O)[C@]4(C)[C@@H](c5ccc(=O)oc5)CC[C@]4(O)[C@@H]3CC[C@]2(O)C[C@H]1OC(=O)C(C)C
Activity [5]: inactive
Activity (Human alphaherpesvirus 1 [6]): inactive

CCC(=O)O[C@@H]1C[C@@]2(O)CC[C@@H]3[C@H]([C@H](O)C(=O)[C@]4(C)[C@@H](c5ccc(=O)oc5)CC[C@]34O)[C@@]2(C)C[C@@H]1OC(C)=O
Activity [5]: inactive
Activity [4]: inactive
Activity (Human alphaherpesvirus 1 [6]): inactive

NC(=O)c1ncn([C@@H]2O[C@H](CO)[C@@H](O)[C@H]2O)n1
Activity [7]: Active

Nc1nc2c(ncn2COCCO)c(=O)[nH]1
Activity (Human alphaherpesvirus 1 [8]): Active
Activity (Human alphaherpesvirus 1 [9]): Active

Nc1ncnc2c1ncn2[C@@H]1O[C@H](CO)[C@@H](O)[C@@H]1O
Activity (Human alphaherpesvirus 1 [8]): Active
Activity (Human alphaherpesvirus 1 [9]): inactive

CC[C@H](C)[C@H]1NC(=O)[C@@H](NC(=O)[C@@H](CC(C)C)NC)[C@@H](C)OC(=O)[C@H](Cc2ccc(OC)cc2)N(C)C(=O)[C@@H]2CCCN2C(=O)[C@H](CC(C)C)NC(=O)[C@@H](C)C(=O)[C@H](C(C)C)OC(=O)C[C@@H]1O [DIDEMNIN A] (H-[dNMeL]T[X1]LP[NMeY](Me); ester 2-C)
IC50 (L1210): 14 ng/mL (≈ 14.8 nM)

CC[C@H](C)[C@H]1NC(=O)[C@@H](NC(=O)[C@@H](CC(C)C)N(C)C(=O)[C@H](C)O)[C@@H](C)OC(=O)[C@H](Cc2ccc(OC)cc2)N(C)C(=O)[C@@H]2CCCN2C(=O)[C@H](CC(C)C)NC(=O)[C@@H](C)C(=O)[C@H](C(C)C)OC(=O)C[C@@H]1O [DIDEMNIN C] (H-[Lac][dNMeL]T[X1]LP[NMeY](Me); ester 3-C)
IC50 (L1210): 11 ng/mL (≈ 10.8 nM)

CC[C@H](C)[C@@H]1NC(=O)[C@@H](NC(=O)[C@@H](CC(C)C)N(C)C(=O)[C@@H]2CCCN2C(=O)[C@H](C)OC(=O)[C@H](CCC(=O)O)NC(=O)[C@H](CCC(N)=O)NC(=O)[C@H](CCC(N)=O)NC(=O)[C@@H](N)CCC(N)=O)[C@@H](C)OC(=O)[C@H](Cc2ccc(OC)cc2)N(C)C(=O)[C@@H]2CCCN2C(=O)[C@H](CC(C)C)NC(=O)[C@@H](C)C(=O)[C@H](C(C)C)OC(=O)C[C@@H]1O [DIDEMNIN D]
IC50 (L1210): 5 ng/mL (≈ 3.08 nM)

CC[C@H](C)[C@@H]1NC(=O)[C@@H](NC(=O)[C@@H](CC(C)C)N(C)C(=O)[C@@H]2CCCN2C(=O)[C@H](C)OC(=O)[C@H](CCC(=O)O)NC(=O)[C@H](CCC(N)=O)NC(=O)[C@@H](N)CCC(N)=O)[C@@H](C)OC(=O)[C@H](Cc2ccc(OC)cc2)N(C)C(=O)[C@@H]2CCCN2C(=O)[C@H](CC(C)C)NC(=O)[C@@H](C)C(=O)[C@H](C(C)C)OC(=O)C[C@@H]1O [DIDEMNIN E]
IC50 (L1210): 3 ng/mL (≈ 2 nM)

CC[C@H](C)[C@@H]1NC(=O)[C@@H](NC(=O)[C@@H](CC(C)C)N(C)C=O)[C@@H](C)OC(=O)[C@H](Cc2ccc(OC)cc2)N(C)C(=O)[C@@H]2CCCN2C(=O)[C@H](CC(C)C)NC(=O)[C@@H](C)C(=O)[C@H](C(C)C)OC(=O)C[C@@H]1O [DIDEMNIN G]
IC50 (L1210): 6 ng/mL (≈ 6.18 nM)

CCCCCCC[C@@H](O)CC(=O)N[C@@H](CCC(N)=O)C(=O)N[C@@H](CCC(N)=O)C(=O)N[C@@H](CCC(=O)O)C(=O)O[C@@H](C)C(=O)N1CCC[C@H]1C(=O)N(C)[C@H](CC(C)C)C(=O)N[C@@H]1C(=O)N[C@@H]([C@@H](C)CC)[C@@H](O)CC(=O)O[C@@H](C(C)C)C(=O)[C@H](C)C(=O)N[C@@H](CC(C)C)C(=O)N2CCC[C@H]2C(=O)N(C)[C@@H](Cc2ccc(OC)cc2)C(=O)O[C@@H]1C [DIDEMNIN X]
IC50 (L1210): 4.4 ng/mL (≈ 2.64 nM)

CCCCCCC[C@@H](O)CC(=O)N[C@@H](CCC(N)=O)C(=O)N[C@@H](CCC(N)=O)C(=O)N[C@@H](CCC(N)=O)C(=O)N[C@@H](CCC(=O)O)C(=O)O[C@@H](C)C(=O)N1CCC[C@H]1C(=O)N(C)[C@H](CC(C)C)C(=O)N[C@@H]1C(=O)N[C@@H]([C@@H](C)CC)[C@@H](O)CC(=O)O[C@@H](C(C)C)C(=O)[C@H](C)C(=O)N[C@@H](CC(C)C)C(=O)N2CCC[C@H]2C(=O)N(C)[C@@H](Cc2ccc(OC)cc2)C(=O)O[C@@H]1C [DIDEMNIN Y]
IC50 (L1210): 5.6 ng/mL (≈ 3.12 nM)

CC[C@H](C)[C@@H]1NC(=O)[C@@H](NC(=O)[C@@H](CC(C)C)NC)[C@@H](C)OC(=O)[C@H](Cc2ccc(OC)cc2)N(C)C(=O)[C@@H]2CCCN2C(=O)[C@H](CC(C)C)NC(=O)[C@@H](C)C(O)[C@H](C(C)C)OC(=O)C[C@@H]1O (some centres undefined) [DIHYDRODIDEMNIN A]
IC50 (L1210): 520 ng/mL (≈ 550 nM)

COc1cc2c(cc1O)CCN[C@]21CS[C@@H]2c3c(OC(C)=O)c(C)c4c(c3[C@H](COC1=O)N1[C@@H]2[C@@H]2N[C@@H](Cc3cc(C)c(OC)c(O)c32)[C@@H]1O)OCO4 [ECTEINASCIDIN 729]
T/C (P388 [10]): 214%
T/C (B16): 246%

COc1cc2c(cc1O)CCN[C@]21CS[C@@H]2c3c(OC(C)=O)c(C)c4c(c3[C@H](COC1=O)N1C[C@@H]3Cc5cc(C)c(OC)c(O)c5[C@H]([C@H]21)N3C)OCO4 [ECTEINASCIDIN 745]
IC50 (L1210): 88 ng/mL (≈ 118 nM)
T/C (P388 [11]): 111%

CC[C@H](C)[C@@H]1NC(=O)[C@@H](N2CN(C)[C@H](CC(C)C)C2=O)[C@@H](C)OC(=O)[C@H](Cc2ccc(OC)cc2)N(C)C(=O)[C@@H]2CCCN2C(=O)[C@H](CC(C)C)NC(=O)[C@@H](C)C(=O)[C@H](C(C)C)OC(=O)C[C@@H]1O [METHYLENE DIDEMNIN A]
IC50 (L1210): 6.5 ng/mL (≈ 6.8 nM)

CC[C@H](C)[C@@H]1NC(=O)[C@@H](NC(=O)[C@@H](CC(C)C)N(C)C(C)=O)[C@@H](C)OC(=O)[C@H](Cc2ccc(OC)cc2)N(C)C(=O)[C@@H]2CCCN2C(=O)[C@H](CC(C)C)NC(=O)[C@@H](C)C(=O)[C@H](C(C)C)OC(=O)C[C@@H]1OC(C)=O [N,O-DIACETYLDIDEMNIN A]
IC50 (L1210): 15 ng/mL (≈ 14.6 nM)

CC[C@H](C)[C@@H]1NC(=O)[C@@H](NC(=O)[C@@H](CC(C)C)N(C)C(C)=O)[C@@H](C)OC(=O)[C@H](Cc2ccc(OC)cc2)N(C)C(=O)[C@@H]2CCCN2C(=O)[C@H](CC(C)C)NC(=O)[C@@H](C)C(=O)[C@H](C(C)C)OC(=O)C[C@@H]1O [N-ACETYLDIDEMNIN A]
IC50 (L1210): 2.4 ng/mL (≈ 2.44 nM)

CC[C@H](C)[C@@H]1NC(=O)[C@@H](NC(=O)[C@@H](CC(C)C)N(C)C(=O)[C@@H]2CCCN2C(=O)[C@H](C)OC(C)=O)[C@H](C)OC(=O)[C@H](Cc2ccc(OC)cc2)N(C)C(=O)[C@@H]2CCCN2C(=O)[C@H](CC(C)C)NC(=O)[C@@H](C)C(=O)[C@H](C(C)C)OC(=O)C[C@@H]1O [NORDIDEMNIN B]
IC50 (L1210): 7.8 ng/mL (≈ 6.76 nM)

COc1cc2c(cc1O)CCN[C@]21CS[C@@H]2c3c(OC(C)=O)c(C)c4c(c3[C@H](COC1=O)N1[C@@H]2[C@H]2c3c(cc(C)c(OC)c3O)C[C@@H]([C@@H]1O)N2C)OCO4 [TRABECTEDIN]
T/C (P388 [12]): 167%
IC50 (L1210): 0.5 ng/mL (≈ 0.656 nM)

Source: ChEMBL document CHEMBL1137795, “Bioactive compounds from aquatic and terrestrial sources” (J Nat Prod, 1990)
